Results published in patent US20090311217A1, “3-SUBSTITUTED-1H-INDOLE COMPOUNDS, THEIR USE AS MTOR KINASE AND PI3 KINASE INHIBITORS, AND THEIR SYNTHESES” (priority 2008, published 2009).
Like-named read-outs stand apart in the source and are kept apart here.

Assays:
PI3K-alpha = PI3K-alpha (Homo sapiens, UniProt P42336); test: PI3K-alpha fluorescence polarization assay; type: biochemical; conditions: read-out: PI3Kα Avg. IC50
PI3K-gamma = PI3K-gamma (Homo sapiens, UniProt P48736); test: PI3K-gamma fluorescence polarization assay; type: biochemical
In short: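 Each isoform (5 ng) phosphorylated 2.5 μM diC8-PI(4,5)P2 at 25 μM ATP for one hour at 25° C in the presence of inhibitor. Reactions were then stopped with EDTA, and product was detected by fluorescence polarization using a GST-GRP1 PH domain and a BODIPY-TMR-labelled IP4 tracer.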

PI3K-gamma, sequence (P48736 whole entry, species assumed, the tested form may be a part, canonical isoform): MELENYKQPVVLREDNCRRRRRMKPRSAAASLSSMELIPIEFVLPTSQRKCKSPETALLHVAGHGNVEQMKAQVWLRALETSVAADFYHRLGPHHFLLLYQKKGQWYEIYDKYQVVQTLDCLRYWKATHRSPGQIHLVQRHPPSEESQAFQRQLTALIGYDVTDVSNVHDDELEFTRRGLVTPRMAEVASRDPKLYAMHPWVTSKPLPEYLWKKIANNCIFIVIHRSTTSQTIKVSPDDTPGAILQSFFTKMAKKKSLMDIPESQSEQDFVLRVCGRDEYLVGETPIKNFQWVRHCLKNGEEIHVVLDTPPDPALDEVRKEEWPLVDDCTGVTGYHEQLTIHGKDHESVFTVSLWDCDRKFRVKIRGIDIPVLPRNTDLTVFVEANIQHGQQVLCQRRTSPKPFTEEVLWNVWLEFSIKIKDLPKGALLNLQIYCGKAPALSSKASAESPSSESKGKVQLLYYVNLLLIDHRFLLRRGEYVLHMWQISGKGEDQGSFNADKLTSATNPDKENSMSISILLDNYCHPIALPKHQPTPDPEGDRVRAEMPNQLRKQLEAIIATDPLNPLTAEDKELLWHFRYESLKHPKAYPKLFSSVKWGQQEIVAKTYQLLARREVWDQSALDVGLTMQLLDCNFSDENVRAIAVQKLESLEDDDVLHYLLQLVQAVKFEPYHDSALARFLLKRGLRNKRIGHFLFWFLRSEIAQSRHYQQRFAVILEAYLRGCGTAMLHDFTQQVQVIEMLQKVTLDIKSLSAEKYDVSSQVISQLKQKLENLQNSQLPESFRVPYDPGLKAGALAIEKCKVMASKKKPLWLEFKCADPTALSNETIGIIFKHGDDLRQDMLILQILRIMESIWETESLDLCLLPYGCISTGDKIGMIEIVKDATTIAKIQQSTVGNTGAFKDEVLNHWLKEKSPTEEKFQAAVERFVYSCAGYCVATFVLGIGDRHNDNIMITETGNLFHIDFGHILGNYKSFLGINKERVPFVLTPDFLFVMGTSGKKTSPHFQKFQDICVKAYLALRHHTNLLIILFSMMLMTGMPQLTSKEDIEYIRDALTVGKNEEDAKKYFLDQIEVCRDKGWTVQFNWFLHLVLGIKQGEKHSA
PI3K-alpha, sequence (P42336 whole entry, species assumed): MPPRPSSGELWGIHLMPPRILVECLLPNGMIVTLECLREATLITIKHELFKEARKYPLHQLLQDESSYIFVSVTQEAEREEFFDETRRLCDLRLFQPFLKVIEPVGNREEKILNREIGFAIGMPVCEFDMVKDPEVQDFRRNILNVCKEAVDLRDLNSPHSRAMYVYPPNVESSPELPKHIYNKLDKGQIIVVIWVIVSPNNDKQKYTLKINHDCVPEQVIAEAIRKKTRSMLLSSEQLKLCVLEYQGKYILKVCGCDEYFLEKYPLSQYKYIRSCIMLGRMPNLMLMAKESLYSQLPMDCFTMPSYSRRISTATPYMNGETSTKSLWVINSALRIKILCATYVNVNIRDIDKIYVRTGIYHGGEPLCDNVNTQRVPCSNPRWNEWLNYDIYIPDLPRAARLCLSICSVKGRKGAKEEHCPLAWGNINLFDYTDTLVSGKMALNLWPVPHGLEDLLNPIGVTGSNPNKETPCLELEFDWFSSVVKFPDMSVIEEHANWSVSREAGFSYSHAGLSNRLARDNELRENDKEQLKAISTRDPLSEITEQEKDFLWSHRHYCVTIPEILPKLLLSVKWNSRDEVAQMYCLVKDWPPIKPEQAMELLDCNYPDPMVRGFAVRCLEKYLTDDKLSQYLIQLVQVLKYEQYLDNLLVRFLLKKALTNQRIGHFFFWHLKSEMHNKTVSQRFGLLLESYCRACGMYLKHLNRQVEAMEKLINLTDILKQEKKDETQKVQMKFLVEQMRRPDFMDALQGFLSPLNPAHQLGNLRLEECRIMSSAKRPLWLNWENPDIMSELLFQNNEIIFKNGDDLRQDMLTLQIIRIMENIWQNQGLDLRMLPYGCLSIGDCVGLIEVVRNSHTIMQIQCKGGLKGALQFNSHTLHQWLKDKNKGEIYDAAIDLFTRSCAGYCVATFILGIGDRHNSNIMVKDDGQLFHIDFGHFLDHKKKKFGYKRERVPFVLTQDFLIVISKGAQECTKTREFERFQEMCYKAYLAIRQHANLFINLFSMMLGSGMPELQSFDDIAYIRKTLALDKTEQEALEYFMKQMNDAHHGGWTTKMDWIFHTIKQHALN
PI3K-alpha, sequence (P27986 whole entry partner, species assumed): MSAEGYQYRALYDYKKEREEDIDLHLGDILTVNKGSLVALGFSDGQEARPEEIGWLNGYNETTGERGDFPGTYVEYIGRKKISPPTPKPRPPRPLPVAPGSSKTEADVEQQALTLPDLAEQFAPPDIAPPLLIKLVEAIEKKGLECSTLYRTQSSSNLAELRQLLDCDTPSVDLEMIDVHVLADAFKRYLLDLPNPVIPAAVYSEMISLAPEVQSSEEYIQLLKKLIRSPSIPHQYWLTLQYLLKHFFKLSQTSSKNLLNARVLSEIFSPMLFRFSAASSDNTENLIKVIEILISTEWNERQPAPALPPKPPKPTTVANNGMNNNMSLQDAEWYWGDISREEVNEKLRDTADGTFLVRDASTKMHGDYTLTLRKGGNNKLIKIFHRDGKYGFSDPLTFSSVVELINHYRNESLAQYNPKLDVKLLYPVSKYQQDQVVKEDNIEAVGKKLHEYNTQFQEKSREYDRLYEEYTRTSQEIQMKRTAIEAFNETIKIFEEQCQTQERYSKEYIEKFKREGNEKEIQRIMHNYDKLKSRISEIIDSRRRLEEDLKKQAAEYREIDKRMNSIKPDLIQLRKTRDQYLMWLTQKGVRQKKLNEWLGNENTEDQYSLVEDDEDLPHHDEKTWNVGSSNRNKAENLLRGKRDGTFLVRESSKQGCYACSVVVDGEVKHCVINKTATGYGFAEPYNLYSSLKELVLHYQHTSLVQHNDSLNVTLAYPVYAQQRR

Compound | IC50 (PI3K-alpha) [nM] | IC50 (PI3K-gamma; PI3Kγ Avg. IC50) [nM] | IC50 (PI3K-gamma; read-out: PI3Kγ Avg. IC50) [nM]
COc1ccc(NC(=O)Nc2ccc3c(c2)C(=O)/C(=C/c2c[nH]c4ccc(OC)cc24)O3)cc1 [Compound 491, 1-{(2Z)-2-[(5-methoxy-1H-indol-3-yl)methylene]-3-oxo-2,3-dihydro-1-benzofuran-5-yl}-3-(4-methoxyphenyl)urea] | 465 | 1310 | 
Cn1c(-c2ccccc2)c(/C=C2\Oc3cc(O)cc(O)c3C2=O)c2c(N)cccc21 [Compound 521, (2Z)-2-[(4-amino-1-methyl-2-phenyl-1H-indol-3-yl)methylene]-4,6-dihydroxy-1-benzofuran-3(2H)-one] | 2470 | 8510 | 
CCc1cc(OC)cc2c(/C=C3\Oc4cc(O)ccc4C3=O)cn(CCN3CCN(C)CC3)c12 [Compound 473, (2Z)-2-({7-ethyl-5-methoxy-1-[2-(4-methylpiperazin-1-yl)ethyl]-1H-indol-3-yl}methylene)-6-hydroxy-1-benzofuran-3(2H)-one] | 162 | 2610 | 
CNC(=O)Nc1ccc2c(c1)C(=O)/C(=C/c1cn(C)c3c(CCCN4CCN(C)CC4)cc(OC)cc13)O2 [Compound 572, 1-[(2Z)-2-({5-methoxy-1-methyl-7-[3-(4-methylpiperazin-1-yl)propyl]-1H-indol-3-yl}methylene)-3-oxo-2,3-dihydro-1-benzofuran-5-yl]-3-methylurea] | 1660 | 2320 | 
COc1ccc2c(c1)c(/C=C1\Oc3cc(O)cc(C)c3C1=O)cn2C [Compound 507, (2Z)-6-hydroxy-2-[(5-methoxy-1-methyl-1H-indol-3-yl)methylene]-4-methyl-1-benzofuran-3(2H)-one] | 78.5 | 1540 | 
6,7-dihydroxy-2-[(1-{4-[4-(2-hydroxyethyl)piperazin-1-yl]butyl}-5-methoxy-2-methyl-1H-indol-3-yl)methylene]-1-benzofuran-3(2H)-one [Example 134] | 204 |  | 3170
COc1ccc2[nH]cc(C=C3Oc4cc(O)cc(Br)c4C3=O)c2c1 [Compound 505, 4-bromo-6-hydroxy-2-[(5-methoxy-1H-indol-3-yl)methylene]-1-benzofuran-3(2H)-one] | 120 | 813 | 
CCc1cc(OC)cc2c(/C=C3\Oc4cc(O)ccc4C3=O)cn(CCCC#N)c12 [Compound 474, 4-{7-ethyl-3-[(Z)-(6-hydroxy-3-oxo-1-benzofuran-2(3H)-ylidene)methyl]-5-methoxy-1H-indol-1-yl}butanenitrile] | 246 | 1390 | 
COc1ccc2c(c1)c(/C=C1\Oc3ccc(NC(=O)NCCO)cc3C1=O)cn2CCCN(C)C [Compound 554, 1-[(2Z)-2-({1-[3-(dimethylamino)propyl]-5-methoxy-1H-indol-3-yl}methylene)-3-oxo-2,3-dihydro-1-benzofuran-5-yl]-3-(2-hydroxyethyl)urea] | 73 | 5260 | 
CCc1c(/C=C2\Oc3cc(O)cc(O)c3C2=O)c2cc(OC)ccc2n1CCCC#N [Compound 493, 4-{3-[(Z)-(4,6-dihydroxy-3-oxo-1-benzofuran-2(3H)-ylidene)methyl]-2-ethyl-5-methoxy-1H-indol-1-yl}butanenitrile] | 3 | 15.5 | 
Cn1cc(/C=C2/Oc3cc(O)cc(O)c3C2=O)c2c(-c3ccccc3)cccc21 [Compound 557, (2E)-4,6-dihydroxy-2-[(1-methyl-4-phenyl-1H-indol-3-yl)methylene]-1-benzofuran-3(2H)-one] | 1200 | > 10000 | 
COc1cc(-c2cncnc2)c2[nH]cc(/C=C3\Oc4cc(O)ccc4C3=O)c2c1 [Compound 498, (2Z)-6-hydroxy-2-[(5-methoxy-7-pyrimidin-5-yl-1H-indol-3-yl)methylene]-1-benzofuran-3(2H)-one] | 63.5 | 392 | 
COc1ccc2[nH]cc(/C=C3\Oc4cc(C#N)ccc4C3=O)c2c1 [Compound 508, (2Z)-2-[(5-methoxy-1H-indol-3-yl)methylene]-3-oxo-2,3-dihydro-1-benzofuran-6-carbonitrile] | 8500 | > 10000 | 
COc1cccc2c1c(/C=C1\Oc3cc(O)cc(O)c3C1=O)c(-c1ccccc1)n2C [Compound 497, (2Z)-4,6-dihydroxy-2-[(4-methoxy-1-methyl-2-phenyl-1H-indol-3-yl)methylene]-1-benzofuran-3(2H)-one] | 963 | 1210 | 
COc1cc(/C=C/CN2CCN(C)CC2)c2[nH]cc(/C=C3\Oc4cc(O)ccc4C3=O)c2c1 [Compound 545, (2Z)-6-hydroxy-2-({5-methoxy-7-[(1E)-3-(4-methylpiperazin-1-yl)prop-1-en-1-yl]-1H-indol-3-yl}methylene)-1-benzofuran-3(2H)-one] | 40.5 | 1240 | 
C=CCNC(=O)Nc1ccc2c(c1)C(=O)/C(=C/c1cn(CCN3CCN(C)CC3)c3ccc(OC)cc13)O2 [Compound 550, 1-allyl-3-[(2Z)-2-({5-methoxy-1-[2-(4-methylpiperazin-1-yl)ethyl]-1H-indol-3-yl}methylene)-3-oxo-2,3-dihydro-1-benzofuran-5-yl]urea] | 64.5 | 1130 | 
CNC(=O)c1ccc2c(c1)C(=O)/C(=C/c1cn(CCCN(C)C)c3ccc(OC)cc13)O2 [Compound 539, (2Z)-2-({1-[3-(dimethylamino)propyl]-5-methoxy-1H-indol-3-yl}methylene)-Nmethyl-3-oxo-2,3-dihydro-1-benzofuran-5-carboxamide] | > 10000 | > 10000 | 
COc1ccc2c(c1)c(/C=C1\Oc3cc(O)cc(O)c3C1=O)cn2CCCC#N [Compound 510, 4-{3-[(Z)-(4,6-dihydroxy-3-oxo-1-benzofuran-2(3H)-ylidene)methyl]-5-methoxy-1Hindol-1-yl}butanenitrile] | 8 | 56 | 
CNC(=O)Nc1ccc2c(c1)C(=O)/C(=C/c1cn(CCN3CCN(C)CC3)c3ccc(OC)cc13)O2 [Compound 553, 1-[(2Z)-2-({5-methoxy-1-[2-(4-methylpiperazin-1-yl)ethyl]-1H-indol-3-yl}methylene)-3-oxo-2,3-dihydro-1-benzofuran-5-yl]-3-methylurea] | 31 | 4830 | 

Now from value to compound, other results behind:

IC50 (PI3K-alpha) [nM] | IC50 (PI3K-gamma; PI3Kγ Avg. IC50) [nM] | Compound | IC50 (PI3K-gamma; read-out: PI3Kγ Avg. IC50) [nM]
288 | 932 | COc1ccc2[nH]c(-c3ccccc3)c(CC3Oc4cc(O)cc(O)c4C3=O)c2c1 (stereo not shown) [Example 118, 4,6-dihydroxy-2-[(5-methoxy-2-phenyl-1H-indol-3-yl)methyl]-1-benzofuran-3(2H)-one] | 
11 | 138 | CNC(=O)Nc1ccc2c(c1)C(=O)/C(=C/c1c(C)n(CCCN3CCOCC3)c3ccc(OC)cc13)O2 [Compound 585, 1-[(2Z)-2-{[5-methoxy-2-methyl-1-(3-morpholin-4-ylpropyl)-1H-indol-3-yl]methylene}-3-oxo-2,3-dihydro-1-benzofuran-5-yl]-3-methylurea] | 
1300 | 4770 | COc1ccc2c(c1)c(C=C1Oc3cccc(O)c3C1=O)c(C)n2CCCCN1CCN(C)CC1 [Example 135, 4-hydroxy-2-({5-methoxy-2-methyl-1-[4-(4-methylpiperazin-1-yl)butyl]-1H-indol-3-yl}methylene)-1-benzofuran-3(2H)-one] | 
3.5 | 830 | CNC(=O)Nc1ccc2c(c1)C(=O)/C(=C/c1c(C)n(CCCN3CCCCC3)c3ccc(OC)cc13)O2 [Compound 588, 1-[(2Z)-2-{[5-methoxy-2-methyl-1-(3-piperidin-1-ylpropyl)-1H-indol-3-yl]methylene}-3-oxo-2,3-dihydro-1-benzofuran-5-yl]-3-methylurea] | 
19.5 | 712 | CNC(=O)Nc1ccc2c(c1)C(=O)/C(=C/c1c(C)n(CCN3CCCC3)c3ccc(OC)cc13)O2 [Compound 611, 1-[(2Z)-2-{[5-methoxy-2-methyl-1-(2-pyrrolidin-1-ylethyl)-1H-indol-3-yl]methylidene}-3-oxo-2,3-dihydro-1-benzofuran-5-yl]-3-methylurea] | 
222 | 6490 | CNC(=O)Nc1ccc2c(c1)C(=O)/C(=C/c1c[nH]c3c(CCCN4CCN(C)CC4)cc(OC)cc13)O2 [Compound 583, 1-[(2Z)-2-({5-methoxy-7-[3-(4-methylpiperazin-1-yl)propyl]-1H-indol-3-yl}methylene)-3-oxo-2,3-dihydro-1-benzofuran-5-yl]-3-methylurea] | 
232 | 2910 | Cc1[nH]c2ccc(Br)cc2c1/C=C1\Oc2c(ccc(O)c2O)C1=O [Example 66, (2Z)-2-[(5-bromo-2-methyl-1H-indol-3-yl)methylene]-6,7-dihydroxy-1-benzofuran-3(2H)-one] | 
3.5 | 355 | CNC(=O)Nc1ccc2c(c1)C(=O)/C(=C/c1c(-c3nc(C(C)C)no3)n(CCN3CCN(C)CC3)c3ccc(OC)cc13)O2 [Compound 614, 1-[(2Z)-2-({5-methoxy-2-[3-(1-methylethyl)-1,2,4-oxadiazol-5-yl]-1-[2-(4-methylpiperazin-1-yl)ethyl]-1H-indol-3-yl}methylidene)-3-oxo-2,3-dihydro-1-benzofuran-5-yl]-3-methylurea] | 
15.5 | 136 | CNC(=O)Nc1ccc2c(c1)C(=O)/C(=C/c1c(C)n(CCN3CCOCC3)c3ccc(OC)cc13)O2 [Compound 608, 1-[(2Z)-2-{[5-methoxy-2-methyl-1-(2-morpholin-4-ylethyl)-1H-indol-3-yl]methylidene}-3-oxo-2,3-dihydro-1-benzofuran-5-yl]-3-methylurea] | 
502 | 1750 | COc1cc2[nH]cc(C=C3Oc4cc(O)cc(O)c4C3=O)c2cc1OC [Example 181, 2-[(5,6-dimethoxy-1H-indol-3-yl)methylene]-4,6-dihydroxy-1-benzofuran-3(2H)-one] | 
